In patent publication US20120065228A1, “COMPOSITIONS AND METHODS FOR TREATING, CONTROLLING, REDUCING, OR AMELIORATING OCULAR INFLAMMATORY WITH LOWER RISK OF INCREASED INTRAOCULAR PRESSURE” (priority 2007, published 2012):
Several values for one entry are separate records, joined by “and”; a condition that tells them apart may be missing. Equal values may be shown once.

Legend:
[1] = test system: Myeloperoxidase (MPO); assay: Myeloperoxidase (MPO) activity in iris-ciliary body, rabbit paracentesis model; assay type: in vivo
Method: Each rabbit was placed in a restraint device and tagged with the alphanumeric code. The formulations were instilled (50 μl) into the conjunctival sac of both eyes 180, 120, 90 and 30 min before the first paracentesis; then 15, 30, 90 min after the first paracentesis. To perform the first paracentesis the animals were anaesthetized by intravenous injection of 5 mg/kg Zoletil® (Virbac; 2.5 mg/kg tiletamine HCl and 2.5 mg/kg zolazepam HCl) and one drop of local anesthetic (Novesina®, Novartis) was administered to the eye. Anterior chamber paracentesis was performed with a 26 G needle attached to a tuberculin syringe; the needle was introduced into the anterior chamber through the cornea, taking care not to damage the tissues. Two hours after the ® first paracentesis, the animals were sacrificed with 0.4 ml Tanax® (Intervet International B.V.) and the second paracentesis was performed. About 100 μl of aqueous humor were removed at the second paracentesis. Aqueous humor was immediately split in four aliquots and stored at −80° C. until analysis. Then both eyes were enucleated and the iris-ciliary body was carefully excised, placed in polypropylene tubes, and stored at −80° C. until analysis.
The activity of MPO was measured as previously described by Williams et al. The iris-ciliary bodies were carefully dried, weighed and immersed in 1 ml of hexa-decyl-trimethyl-ammonium bromide solution. Then, the samples were sonicated for 10 sec on ice by a ultrasound homogenizer (HD 2070, Bandelin electronic), freeze-thawed three times, sonicated for 10 sec and centrifuged at 14,000 g for 10 min to remove cellular debris. An aliquot of the supernatant (40-200 μl) was diluted to 3 ml with the o-dianisidine 2HCl/H2O2 solution. The change in absorbance at 460 nm was continuously monitored for 5 min by a spectrophotometer (UV/Vis Spectrometer Lambda EZ 201; Perkin Elmer). The slope of the line (Δ/min) was determined for each sample and used to calculate the number of units of MPO in the tissue as follows:
were ε=11.3 mM^−1. Values were expressed as units of MPO/g of tissue.
Pupillary diameter, PGE2, protein, PMN, and MPO were expressed as mean±SEM. Statistical analysis was performed using one way ANOVA followed by a Newman-Keuls post hoc test. Clinical score was expressed as % of eyes and the statistical analysis was performed using Kruskal-Wallis followed by a Dunn post hoc test. P<0.05 was considered statistically significant in both cases. Prism 4 software (GraphPad Software, Inc.) was used for the analysis and graphs.

[2] = test system: intraocular pressure (IOP) in New Zealand White rabbits; assay: Intraocular pressure in New Zealand White rabbits, topical dosing four times daily; assay type: in vivo
Method: On Days 1-31, animals received daily topical doses of the appropriate test article into the right eye. Animals were dosed four times per day, with doses administered 2 hours apart. Doses were administered using a calibrated 50-μL pipette. The eyelids were held close for 10 seconds immediately following dosing. The time of each dose administration was recorded.
Intraocular pressure (“IOP”) was determined for both eyes of each animal on Days 3, 5, 10, 12, 16, 18, 22, 24, 26, 30, and 32. LOP was evaluated with a Medtronic Solan, Model 30 classic pneumatonometer. Proparacaine hydrochloride 0.5% (1 drop) was delivered to each eye prior to IOP measurement. IOP was measured on Monday, Wednesday, and Friday of each week. A two-point diurnal curve was established: IOP was recorded at 8 a.m. and 12 p.m. on Day 3, and at 8 a.m. and 2 p.m. on later days, with a ±1 hour range for each of these times. The time of the measurements was recorded.
Descriptive statistics were prepared for IOP data of each treatment group (left and right eyes separately) at each measurement interval. The statistics included the number of observations (“N”), mean, standard deviation (“STD”), and standard error (“SEM”). Statistical analyses were conducted on IOP results using Statistical Analysis Systems (SAS Institute, Inc., Cary, N.C., V8.0). Parameters were evaluated using analysis of variance/GLM Procedure followed by Tukey's Standardized Range Test (Tukey, 1985) for post hoc comparisons of group means. The level of significance was set at a probability of p<0.05 for all statistical procedures. Group IOP means were compared at each interval, with left and right eyes compared separately.
IOP data for the following six animals were excluded from group statistics: Group A, Nos. 3081, 3037, 3068, and 3011; Group C, No. 3034; and Group E, No. 3084.

SMILES: C[C@@H]1C[C@H]2[C@@H]3CCC4=CC(=O)C=C[C@]4(C)[C@@]3(F)[C@@H](O)C[C@]2(C)[C@@]1(O)C(=O)CO [dexamethasone, reference compound]
- MPO Unit/g ([1]; 0.1% Dex, iris-ciliary body samples collected after the second paracentesis, individual eyes (DX/SX), listed as Dex): 0.71 Unit/g and 0.60 Unit/g and 1.32 Unit/g and 0.48 Unit/g (2×) and 0.39 Unit/g and 0.45 Unit/g and 0.51 Unit/g
- MPO activity in iris-ciliary body, Mean ([1]; 0.1% topical formulation, after the second paracentesis): 0.618 MPO Unit/g
- Mean IOP versus corresponding eyes of other groups ([2]; 0.1% dexamethasone suspension, on several days, p<0.05): significantly higher
- Mean IOP after treatment began ([2]; rabbits, right eye four times daily up to 31 days, dexamethasone 0.1%, BOL-303242-X 1, 5, 10 mg/g, left and right eyes): increased sharply
